In PubChem BioAssay (NCI):
Several values for one entry are separate records, joined by “and”; a condition that tells them apart may be missing. Identical values can stand only once.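 Where inhibition never reached the appropriate level, the endpoint shown equals the highest concentration tested. Otherwise, values were interpolated linearly from a five-concentration, 48-hour dose response in 96-well plates. Abbreviation: GI50, concentration required for 50% inhibition of growth. TGI: concentration producing complete growth inhibition.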

Key:
Assay in all cases: inhibition of tumour cell growth, NCI panel, 48 h
KM20L2 colon = tested on: KM20L2 colon
LXFL 529 NSCLC = tested on: LXFL 529 NSCLC
HS 578T breast = tested on: HS 578T breast
MCF7 breast = tested on: MCF7 breast
MDA-MB-435 = tested on: MDA-MB-435
NCI/ADR-RES ovarian = tested on: NCI/ADR-RES ovarian
MDA-N = tested on: MDA-N

SMILES	TGI (KM20L2 colon) [µM]	TGI (LXFL 529 NSCLC) [µM]	GI50 (HS 578T breast)	TGI (HS 578T breast)	GI50 (MCF7 breast)	TGI (MCF7 breast)	GI50 (MDA-MB-435) [µM]	TGI (MDA-MB-435) [µM]	GI50 (NCI/ADR-RES ovarian)	TGI (NCI/ADR-RES ovarian)	TGI (MDA-N) [µM]	GI50 (KM20L2 colon) [µM]	GI50 (LXFL 529 NSCLC) [µM]
C/C(=C\c1ccccc1)C(O)S(=O)(=O)O (stereo unspecified)	> 100	> 100	–	–	–	–	–	–	–	–	–	–	–
CC(C)(C)OC(=O)N(CCCn1c2c(c3ccccc3c1=O)C(=O)c1ccccc1-2)CCN(CCCn1c2c(c3ccccc3c1=O)C(=O)c1ccccc1-2)C(=O)OC(C)(C)C	–	–	15.8 µM	> 50 µM	21.3 µM	> 50 µM	> 50	> 50	> 50 µM	> 50 µM	–	–	–
CNC1=C(Br)C(=O)C2=C(C1=O)C1C3=C(C(=O)C=CC3=O)C2c2ccccc21 (stereo unspecified)	–	–	12.7 µM	70.3 µM	2.25 µM	5.62 µM	6.59	14.7	4.68 µM	13.4 µM	–	–	–
CC1=C(CC/C(C)=C/CCC2(C)CCC([C@H](C)C(=O)O)OO2)C(C)(C)CCC1 (stereo partly specified) (tested in a mixture with another compound)	> 100	> 100	–	–	–	–	–	–	–	–	–	–	–
S=C(S)NCCCn1ccnc1	–	–	–	–	–	> 100 µM	–	> 100	–	> 100 µM	> 100	–	–
CC(C)(C)c1cc2c(OP(c3ccccc3)c3ccccc3)c(c1)Cc1cc(C(C)(C)C)cc(c1OP(c1ccccc1)c1ccccc1)Cc1cc(C(C)(C)C)cc(c1OP(c1ccccc1)c1ccccc1)Cc1cc(C(C)(C)C)cc(c1OP(c1ccccc1)c1ccccc1)C2	> 50	> 50	–	–	–	–	–	–	–	–	–	> 50	> 50
CC(=O)OC1C(O)COC(Oc2c(C)c3c4c(c2O)[C@@H](C)CC[C@@H]4[C@@H](C)C[C@H]3C=C(C)C)C1O (stereo partly specified)	–	–	16.8 µM	37.2 µM	17.2 µM	> 100 µM	24	67.4	15.4 µM	32.5 µM	–	–	–
COc1ccccc1NC(=O)N/C(N)=N/c1nc2ccccc2s1	–	–	0.0695 µM	> 100 µM	0.0401 µM	> 100 µM	0.0211	0.0692	0.0474 µM	–	–	–	–
COc1ccc(CNCCCN2C(=O)c3ccc4c5c(ccc(c35)C2=O)C(=O)N(CCCNCCCCNCCCN)C4=O)c(OC)c1OC	–	–	7.52 µM	43.4 µM	0.355 µM	1.62 µM	1.17	6.57	6.01 µM	49.7 µM	–	–	–
C[C@]1(O)CC(=O)[C@]2(O)C3=C(C=C[C@]2(O)C1)C(=O)c1c(O)cccc1C3=O	–	–	2.74 µM	14.7 µM	–	–	1.85	3.44	5.84 µM	40.3 µM	–	–	–
O=C(Oc1ccccc1Cl)c1cccnc1Nc1ccnc(C(F)(F)F)c1	–	–	17.3 µM	48.9 µM	3.66 µM	17.5 µM	4.53	18.3	16.5 µM	62.8 µM	–	–	–
COc1ccc(-c2ccc(=O)oc2-c2cc(OC)c(OC)c(OC)c2)cc1O	–	–	0.0275 µM	> 100 µM	< 0.01 µM	> 100 µM	–	–	0.036 µM	> 100 µM	–	–	–
Cc1cc2cc(Oc3ccnc(Nc4cccc(CS(=O)(=O)NCCN(C)C)c4)n3)ccc2[nH]1	–	–	3.17 µM	29.5 µM	4.03 µM	18.4 µM	5.37	18.4	17.9 µM	43.6 µM	–	–	–
Cc1ccc2nc(NC(=O)CSC(=S)N3CCN(Cc4ccccc4)CC3)sc2c1	–	–	> 100 µM	> 100 µM	64.5 µM	> 100 µM	> 100	> 100	> 100 µM	> 100 µM	–	–	–
Cn1c(-c2c(N)n(Cc3ccc(Cl)cc3)c3nc(C#N)c(C#N)nc23)nc2ccccc21	–	–	4 µM	24.5 µM	3.94 µM	> 50 µM	7.63	> 50	2.36 µM	10.8 µM	–	–	–
COc1cc2c(C#N)n3c(c2cc1OC)C(=O)C(c1ccccc1)Oc1ccccc1-3 (stereo unspecified)	–	–	4.62 µM	65.5 µM	–	–	–	–	3.05 µM	> 100 µM	–	–	–
CC(C)(C)c1ccc(NC(=O)c2cc(=O)c3ccccc3[nH]2)c(C(C)(C)C)c1O	–	–	6.46 µM	39 µM	3.35 µM	12.9 µM	4.92	17.7	9.11 µM	24.4 µM	–	–	–
COc1ccc(OC)c(-c2cn3nc(-c4c[nH]c5ccc(Br)cc45)sc3n2)c1	–	–	2.87 µM	14.5 µM	1.77 µM	5.13 µM	2.42	5.83	3.38 µM	10.9 µM	–	–	–
COc1cc2c(c(OC)c1OC)C(=O)c1c-2n(CCCN)c(=O)c2cc([N+](=O)[O-])ccc12	–	–	2 µM	4.99 µM	0.25 µM	–	1.07	2.4	2.03 µM	9.98 µM	–	–	–
CCOc1ccc2c(-c3ccnc(Nc4cccc(C(F)(F)F)c4)n3)cnn2n1	–	–	> 20.2 µM	> 25 µM	0.979 µM	> 12.2 µM	9.93	> 25	9.04 µM	> 25 µM	–	–	–
NC(CCc1nc(-c2ccccc2)cs1)C(=O)O (stereo unspecified)	–	> 100	–	–	–	–	–	–	–	–	–	–	–
Cc1cc(Cl)ccc1OCC(=O)Oc1c(Cl)c(Cl)c(Cl)c(Cl)c1Cl	–	–	–	66.3 µM	–	96.7 µM	–	68.9	–	67.6 µM	74.5	–	–
CCCCCCCCCCCCCCCC[N+](C)(C)C	–	–	0.269 µM and 1.82 µM	0.984 µM and 5.46 µM	0.313 µM and 1.86 µM	1.44 µM and 5.2 µM	0.241	0.761	1.6 µM and 11.9 µM	6.53 µM and 31.6 µM	–	–	–
CC(C)NCCCNC1=C(Cl)C(=O)c2ccccc2C1=O	–	–	2.93 µM	9.02 µM	4.13 µM	17.5 µM	2.1	4.07	12 µM	28.6 µM	–	–	–
CN(C)c1ccc2c(SCC(=O)OCC(=O)[C@@]3(O)CC[C@H]4[C@@H]5CCC6=CC(=O)C=C[C@]6(C)[C@H]5C(=O)C[C@@]43C)c3ccc(N(C)C)cc3nc2c1	–	–	–	> 100 µM	–	> 100 µM	–	> 72.1	–	–	> 100	–	–
O=C(CN1C(=O)c2ccccc2C1=O)OC1C=CCCC1 (stereo unspecified)	> 100	> 100	–	–	–	–	–	–	–	–	–	–	–
C=C(C)[C@@H]1CC[C@]2(C)[C@H](CC=C3[C@@H]4CC(C)(C)CC[C@]4(C(=O)OC)CC[C@]32C)[C@@]1(C)CC/C(N)=N/O	–	–	2.02 µM	4.97 µM	2.13 µM	5.3 µM	1.78	3.65	2.09 µM	5.42 µM	–	–	–
